# Laboratory results: ChEMBL document CHEMBL1144794, “Synthesis of 4'-modified noraristeromycins to clarify the effect of the 4'-hydroxyl groups for inhibitory activity against S-adenosyl-L-homocysteine hydrolase” (Bioorg Med Chem Lett, 2008)
# Active and inactive are the calls of the source. The rule behind the calls is not given here.
# Experiments:
# [1] = (§1) Inhibition of Plasmodium falciparum recombinant SAHH at 1000 uM
# [2] = target: T1, Adenosylhomocysteinase (Homo sapiens, UniProt P23526); assay: Inhibition of human recombinant SAHH
# Target sequence in this assay (P23526 whole entry): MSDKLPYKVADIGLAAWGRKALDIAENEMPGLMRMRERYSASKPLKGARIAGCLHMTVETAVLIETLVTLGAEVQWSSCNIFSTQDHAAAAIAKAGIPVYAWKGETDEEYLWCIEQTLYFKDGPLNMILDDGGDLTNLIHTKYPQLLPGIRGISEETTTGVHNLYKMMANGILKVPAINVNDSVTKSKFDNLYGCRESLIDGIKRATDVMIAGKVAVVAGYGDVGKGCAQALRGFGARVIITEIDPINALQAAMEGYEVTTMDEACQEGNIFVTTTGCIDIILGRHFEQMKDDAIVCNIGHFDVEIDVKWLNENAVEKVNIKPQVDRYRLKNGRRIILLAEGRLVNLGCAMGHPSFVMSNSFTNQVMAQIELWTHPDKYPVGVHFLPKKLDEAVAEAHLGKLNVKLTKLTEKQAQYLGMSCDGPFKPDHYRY
# [3] = Inhibition of Plasmodium falciparum recombinant SAHH
# [4] = target: T1, Adenosylhomocysteinase; assay: Inhibition of human recombinant SAHH at 1000 uM
# Target sequence in this assay (P23526 2-432 limits assumed): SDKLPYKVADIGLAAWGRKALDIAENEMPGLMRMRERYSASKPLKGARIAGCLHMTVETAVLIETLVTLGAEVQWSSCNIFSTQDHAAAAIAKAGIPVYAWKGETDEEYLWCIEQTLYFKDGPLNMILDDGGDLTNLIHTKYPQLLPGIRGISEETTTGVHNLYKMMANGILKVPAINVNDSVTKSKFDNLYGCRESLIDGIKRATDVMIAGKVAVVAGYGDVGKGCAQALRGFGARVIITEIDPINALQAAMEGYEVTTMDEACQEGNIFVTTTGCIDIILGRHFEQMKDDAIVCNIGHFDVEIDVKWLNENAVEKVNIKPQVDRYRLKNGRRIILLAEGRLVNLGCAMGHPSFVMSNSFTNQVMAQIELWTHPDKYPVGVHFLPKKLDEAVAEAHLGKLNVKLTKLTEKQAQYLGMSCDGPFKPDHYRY
# [5] = tested on: Plasmodium falciparum; assay: as §1
IC50 [1] [µM],IC50 [2] [µM],IC50 [3] [µM],Activity [4],Activity [5],Compound
9,,,,,Nc1ncnc2c1ncn2[C@@H]1CC[C@@H](O)[C@H]1O
,,,inactive,inactive,Nc1ncnc2c1ncn2[C@@H]1C[C@H](OS(N)(=O)=O)[C@@H](O)[C@H]1O
,,200,inactive,,Nc1ncnc2c1ncn2[C@@H]1C[C@H](F)[C@@H](O)[C@H]1O
,,,inactive,inactive,Nc1ncnc2c1ncn2[C@@H]1C[C@@H](F)[C@@H](O)[C@H]1O
,,,inactive,inactive,Nc1ncnc2c1ncn2[C@@H]1C[C@@H](OS(=O)(=O)O)[C@@H](O)[C@H]1O
,,,inactive,inactive,Nc1ncnc2c1ncn2[C@@H]1C[C@@H](OS(N)(=O)=O)[C@@H](O)[C@H]1O
,,,inactive,inactive,Nc1nc(N)c2ncn([C@@H]3C[C@H](OS(=O)(=O)O)[C@@H](O)[C@H]3O)c2n1
,123,117,,,[N-]=[N+]=N[C@H]1C[C@@H](n2cnc3c(N)ncnc32)[C@H](O)[C@@H]1O
,,,inactive,inactive,Nc1nc(N)c2ncn([C@@H]3C[C@H](OS(N)(=O)=O)[C@@H](O)[C@H]3O)c2n1
,> 500,> 500,,,Nc1ncnc2c1ncn2[C@@H]1C[C@@H](N)[C@@H](O)[C@H]1O
,,,inactive,inactive,Nc1ncnc2c1ncn2[C@@H]1C[C@H](OS(=O)(=O)O)[C@@H](O)[C@H]1O
,,,inactive,inactive,Nc1nc(N)c2ncn([C@@H]3C[C@@H](OS(=O)(=O)O)[C@@H](O)[C@H]3O)c2n1
,,,inactive,inactive,Nc1nc(N)c2ncn([C@@H]3C[C@@H](OS(N)(=O)=O)[C@@H](O)[C@H]3O)c2n1
,76,126,,,Nc1ncnc2c1ncn2[C@@H]1C[C@H](N)[C@@H](O)[C@H]1O
,163,90,,,[N-]=[N+]=N[C@@H]1C[C@@H](n2cnc3c(N)ncnc32)[C@H](O)[C@@H]1O

Compound,IC50 [1] [µM],IC50 [2] [µM],IC50 [3] [µM],Activity [4],Activity [5]
Nc1ncnc2c1ncn2[C@@H]1C[C@@H](O)[C@@H](O)[C@H]1O,,7.6,79,,
Nc1nc(F)nc2c1ncn2[C@@H]1C[C@H](O)[C@@H](O)[C@H]1O,,13,63,,
Nc1ncnc2c1ncn2[C@@H]1C[C@H](O)[C@@H](O)[C@H]1O [NORARISTEROMYCIN],,3.1,1.1,,
